US7425556B2 (priority 2005, dated 2008)

Experiments:
[1] = biological target: T1, GABAA2 (human α2β3γ2 GABAA receptor) (Homo sapiens, UniProt P18507+P47869); test: Two-electrode voltage-clamp in Xenopus oocytes, potentiation of GABA EC10 current, GABAA2; format: cell-based; details: percentage potentiation of GABA EC10 current divided by that of diazepam
T1 construct: expressed in transfected cells; host or cells: Xenopus laevis oocytes injected with capped cRNA
Description: (§1) Presently available GABAA modulator anxiolytics work via interactions at the classical benzodiazepine binding site. To a large degree these anxiolytics lack GABAA receptor subtype-selectivity. The subtype-selective GABAA receptor modulators may offer more advantages. […] Sedation, a side-effect common to all marketed benzodiazepines, is believed to be mediated by interactions at GABAARs containing the α1 subunit. To develop anxiolytics with minimal liabilities due to interactions with other subunits, an electrophysiological assay was developed to screen modulatory effects of various compounds on different GABA subunit combinations heterologously expressed in Xenopus oocytes.
(§2) GABAA receptors were heterologously expressed in Xenopus oocytes by injecting cRNA corresponding to human α1, α2, α3, α5, β2, β3 and γ2 subunits of the GABAA receptor genes. The specific subunit combinations (subtypes) were as follows: α1β2γ2, α2β3γ2, α3β3γ2, and α5β3γ2. The EC10 of GABA was approximated for each cell. Stability of GABA-mediated (EC10) current was established. Modulatory effect of test compound was determined and compared across subtypes. […] Thus, the assay can characterize modulatory effects and determine subtype selectivity of test compounds on major subtypes of GABAA receptors.
(§3) Xenopus laevis frogs (Xenopus I, Kalamazoo, MI) were anesthetized using 0. […] Surgically removed ovarian lobes were teased out in OR2 solution (82 NaCl, 2.5 KCl, 5 HEPES, 1.5 NaH2PO4, 1 MgCl2, 0.1 EDTA, in mM, pH 7.4). The acolytes were deflocculated by incubation in 25 mL OR2 containing 0.2% collagens 1A (SIGMA) two times for about 60 minutes on a platform shaker and stored in Leibovitz's L-15 medium. Acolytes were injected the following day in 0.5× Leibovitz's L-15 medium containing […] gentamycin, 10 units/ml penicillin, and […] streptomycin.
(§4) Capped cRNAs from the linear zed vectors containing human α1, β2 and γ2 subunits of the GABAA receptor genes were mixed in ratio of […]. Acolytes were injected with 25-50 nL of mixed RNA with an appx molar ratio for α1, β2 and γ2 as 1:1:10. Acolyte recordings were done 2-10 days after injection. The same methods apply to subtypes derived from α2β3γ2, α3β3γ2, and α5β3γ2, except for 1:1:1 ratio was used for α, β, and γ subunits.
(§5) All measurements were done in a medium containing ND-96 (96 NaCl, 2 KCl, 1.8 CaCl2.2H2O, 1 MgCl2.6H2O, 5 HEPES, in mM, pH 7.5). Two-electrode voltage-clamp recording was carried out using Opus press amplifier (Axon Instruments, Foster City, Calif.), which allows simultaneous recording from 8 acolytes. Acolytes were impaled with two electrodes of 1-2 MΩ tip resistance when filled with 3M KCl. Recordings were begun when membrane potential became stable at potentials negative to −50-−60 mV. Membrane potential was held at −60 mV. […] The concentration of GABA corresponded to the EC10 value calculated for each acolyte. The modulator pulses started 30 s before the GABA pulse so as to allow preoccupation with the modulator. A set of 3 pulses with just GABA without modulator was given prior to the modulator-containing pulses to define the baseline GABA response. Two acolytes per each experiment were dedicated to observe the effect of diazepam on GABA response to ensure the presence of γ subunit in the GABAA pantomimic complex, which imparts diazepam sensitivity to the complex.
(§6) Current amplitude (i) was measured from baseline to peak using Clamp fit (Axon Inst., Foster City, Calif.). Potentiating was calculated as percent change from the baseline GABA current flux 100×(imod/icontrol)−1) where imod=current mediated by modulator+GABA and icontrol=current mediated by GABA alone. […] Similarly, a value of −50% potentiating means the presence of modulator caused a 50% decrease in the control current.

[2] = biological target: T2, GABAA1 (human α1β2γ2 GABAA receptor) (Homo sapiens, UniProt P14867+P18507); test: Two-electrode voltage-clamp in Xenopus oocytes, potentiation of GABA EC10 current, GABAA1; format: cell-based; details: percentage potentiation of GABA EC10 current divided by that of diazepam
T2 construct: expressed in transfected cells; host or cells: Xenopus laevis oocytes injected with capped cRNA
Description: as §1, §2, §3, §4, §5, §6

[3] = biological target: T3, GABAA2 receptors (α2, β3, γ2 receptor subunits) (Homo sapiens, UniProt P18507+P47869); test: biochemical; details: [3H]-Flunitrazepam ~2 nM, α2β3γ2 Sf9 membranes, 1 hr at 4° C.; read-out: GABAA2 Binding Ki
T3 construct: host or cells: Sf9 cells (membranes)
Procedure: In some embodiments, the binding test was directed to a subtype of GABAA receptors, such as GABAA1 receptors (i.e., those containing the α1 subunit), GABAA2 receptors (i.e., those containing the α2 subunit), GABAA3 receptors (i.e., those containing the α3 subunit) and GABAA5 receptors (i.e., those containing the α5 subunit).
[formula] Method FF GABAA2 Binding Method Reagents
Assay and Wash Buffer: 50 mM Tris-Citrate, 200 mM NaCl, pH 7.8
Compounds at 10 mM in DMSO: Put 75 μl in column 1 of compound plate.
Flumazenil, 10 mM (for NSB)
[^3H]-Flunitrazepam (Cat #NET567): Prepare 10× stock=20 nM, [F} in assay=˜2 nM
1. […] Add 5 ul of 30 uM flumazenil to wells 12 D-E for 50% control wells.
2. Spot 2 μl of compound dilutions into dry plate (Automation Program 3). Manually spot 2 μl 10 mM flumazenil into wells 12 F-H for nonspecific control.
3. Make 1:100 dilution in assay buffer (2 μl into 200 μl) and dispense 25 μl compound into assay plates (Automation Program 4).
4. Dispense 200 μl membranes into assay plate (Automation Program 5).
5. Add 25 μl [^3H]-Flunitrazepam (Automation Program 6). Incubate for 1 hr at 4° C.
6. Collect membranes on a cell harvester onto GF/B filter plates (pre-wet with dH2O and wash 5×400 μl/well, with cold assay buffer. (First 3 washes are considered hot; last two are cold.)
7. Dry plates for 2-3 hours at RT.
8. Add 40 μl Microsecond 40/well (Automation Program 7); seal plates. Count on a Top Count.
Data is analyzed by calculating percent of control, IC50, and Kid in an Lift template. The following formula is used in the templates: […]

T3 sequence (P47869 29-451): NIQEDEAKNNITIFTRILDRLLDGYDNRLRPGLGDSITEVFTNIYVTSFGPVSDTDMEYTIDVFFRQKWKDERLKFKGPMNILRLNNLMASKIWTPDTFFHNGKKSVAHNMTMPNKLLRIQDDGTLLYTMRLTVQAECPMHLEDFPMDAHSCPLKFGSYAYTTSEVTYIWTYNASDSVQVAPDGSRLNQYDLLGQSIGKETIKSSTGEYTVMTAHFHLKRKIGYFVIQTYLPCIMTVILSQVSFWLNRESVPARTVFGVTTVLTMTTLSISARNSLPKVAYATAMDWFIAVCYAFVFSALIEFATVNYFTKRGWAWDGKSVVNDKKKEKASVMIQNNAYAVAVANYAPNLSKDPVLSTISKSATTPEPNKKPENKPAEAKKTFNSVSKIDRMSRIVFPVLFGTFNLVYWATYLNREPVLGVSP
T3 sequence (P28472 26-473 partner): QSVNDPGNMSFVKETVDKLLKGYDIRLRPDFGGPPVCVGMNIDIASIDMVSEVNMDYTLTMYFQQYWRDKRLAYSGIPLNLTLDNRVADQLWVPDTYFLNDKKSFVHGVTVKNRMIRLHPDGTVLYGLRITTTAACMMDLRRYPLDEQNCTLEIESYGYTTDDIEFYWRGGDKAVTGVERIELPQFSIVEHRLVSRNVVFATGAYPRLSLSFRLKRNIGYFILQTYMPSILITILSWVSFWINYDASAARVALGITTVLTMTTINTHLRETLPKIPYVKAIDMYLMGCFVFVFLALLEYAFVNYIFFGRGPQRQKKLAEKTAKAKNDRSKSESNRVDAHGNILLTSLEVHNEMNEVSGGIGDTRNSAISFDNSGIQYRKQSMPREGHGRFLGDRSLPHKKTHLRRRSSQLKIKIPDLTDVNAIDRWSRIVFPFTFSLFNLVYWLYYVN
T3 sequence (P18507 40-475): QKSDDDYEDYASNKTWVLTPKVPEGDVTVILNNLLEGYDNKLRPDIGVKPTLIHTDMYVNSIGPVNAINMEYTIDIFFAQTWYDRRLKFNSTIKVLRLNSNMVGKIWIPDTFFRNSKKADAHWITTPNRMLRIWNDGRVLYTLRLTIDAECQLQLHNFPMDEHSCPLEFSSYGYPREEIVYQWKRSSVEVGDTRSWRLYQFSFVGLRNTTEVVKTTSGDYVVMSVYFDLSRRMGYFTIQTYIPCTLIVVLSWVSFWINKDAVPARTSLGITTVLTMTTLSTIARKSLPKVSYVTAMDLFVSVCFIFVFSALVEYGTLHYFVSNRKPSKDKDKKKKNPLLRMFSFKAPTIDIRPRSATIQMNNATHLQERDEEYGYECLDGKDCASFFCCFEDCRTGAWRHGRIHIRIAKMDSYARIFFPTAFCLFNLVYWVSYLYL
T1 sequence (P47869 29-451): as the sequence (P47869 29-451) above
T1 sequence (P28472 26-473 partner): as the sequence (P28472 26-473 partner) above
T1 sequence (P18507 40-475): as the sequence (P18507 40-475) above
T2 sequence (P14867 28-456): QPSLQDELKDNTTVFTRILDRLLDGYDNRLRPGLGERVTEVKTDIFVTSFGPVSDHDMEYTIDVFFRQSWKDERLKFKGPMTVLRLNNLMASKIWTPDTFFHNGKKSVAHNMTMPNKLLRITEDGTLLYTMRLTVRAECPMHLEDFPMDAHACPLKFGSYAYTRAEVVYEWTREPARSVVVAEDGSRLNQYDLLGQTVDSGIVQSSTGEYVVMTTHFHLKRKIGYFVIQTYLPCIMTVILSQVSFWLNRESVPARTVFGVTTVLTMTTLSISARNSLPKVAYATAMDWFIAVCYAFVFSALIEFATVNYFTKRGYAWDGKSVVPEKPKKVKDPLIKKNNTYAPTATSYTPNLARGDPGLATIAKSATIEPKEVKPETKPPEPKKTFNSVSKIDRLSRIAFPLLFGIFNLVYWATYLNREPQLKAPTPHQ
T2 sequence (P47870 25-512 partner limits assumed): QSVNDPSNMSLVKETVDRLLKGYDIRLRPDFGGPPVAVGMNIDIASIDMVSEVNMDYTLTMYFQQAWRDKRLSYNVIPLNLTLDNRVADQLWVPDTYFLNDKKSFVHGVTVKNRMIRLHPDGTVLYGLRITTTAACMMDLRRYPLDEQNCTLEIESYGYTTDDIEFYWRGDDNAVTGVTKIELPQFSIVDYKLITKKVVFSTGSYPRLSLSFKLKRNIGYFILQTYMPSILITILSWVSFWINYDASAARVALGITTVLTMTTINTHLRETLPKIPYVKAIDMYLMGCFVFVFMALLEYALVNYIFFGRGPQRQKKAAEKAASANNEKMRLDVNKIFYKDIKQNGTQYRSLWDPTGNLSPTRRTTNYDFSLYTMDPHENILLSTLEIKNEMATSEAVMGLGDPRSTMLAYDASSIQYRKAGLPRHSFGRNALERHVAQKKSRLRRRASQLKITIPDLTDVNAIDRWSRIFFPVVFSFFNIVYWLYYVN
T2 sequence (P18507 40-475): as the sequence (P18507 40-475) above

Compound | Relative Potentiation for GABAA2 [1] | Relative Potentiation for GABAA1 [2] | Ki [3] [nM]
CCCNC(=O)c1nnc2c(-c3cc(OC)c(OC)c(OC)c3)cccc2c1N | 0.67 | 0.4 | 56.5
CCCNC(=O)c1nnc2c(-c3cc(C)ccc3OC)c(Cl)ccc2c1N |  | 0.47 | 2.89
CCCNC(=O)c1nnc2c(-c3ccsc3)cccc2c1N | 0.038 | −0.26 | 18.6
CCCNC(=O)c1nnc2c(-c3ccc(OC)c(C)c3)cccc2c1N | 0.27 | 0.21 | 17.6
CCCNC(=O)c1nnc2c(-c3cccc(C)c3C)c(F)ccc2c1N | 0.13 | 0.11 | 0.615
CCCNC(=O)c1nnc2c(-c3ccccc3)c(F)ccc2c1N | 0.02 | −0.093 | 1
CCCNC(=O)c1nnc2c(-c3ccc(OC)c(OC)c3OC)c(F)ccc2c1N |  | 0.51 | 0.6
CCCNC(=O)c1nnc2c(-c3nc(Br)ccc3OC)cccc2c1N |  | 0.34 | 7.51
CCCNC(=O)c1nnc2c(-c3c(Cl)cccc3OC)cccc2c1N [drawing 410] |  | −0.040 | 
CCCNC(=O)c1nnc2c(-c3ccccc3C(F)(F)F)cccc2c1N | 0.063 | 0.12 | 0.364
CCCNC(=O)c1nnc2c(-c3cnc(OC)c(Cl)c3)cccc2c1N | 0.04 | 0.086 | 25.4
CCCCNC(=O)c1nnc2c(-c3cc(C)ccc3OC)cccc2c1N |  | 0.32 | 13.3
CCCNC(=O)c1nnc2c(-c3cnc(OC)c(F)c3)cccc2c1N | 0.14 | −0.012 | 22.1
COc1ccc(-c2cccc3c(N)c(C(=O)NC4CCC4)nnc23)c(OC)c1 |  | 0.091 | 0.927
COc1ccc(-c2cccc3c(N)c(C(=O)NC4CC4)nnc23)c(OC)n1 |  |  | 1
CCCNC(=O)c1nnc2c(-c3cc(OC)cc(OC)c3)c(F)ccc2c1N |  | 0.38 | 0.552
CCCNC(=O)c1nnc2c(-c3cc(C(=O)N4CCC4)ccc3OC)cccc2c1N |  | 0.48 | 18.4
CCCNC(=O)c1nnc2c(-c3c(F)cccc3OC)c(F)ccc2c1N |  |  | 0.341
CCCNC(=O)c1nnc2c(-c3cc(Cl)cc(Cl)c3)c(F)ccc2c1N |  | 0.36 | 16.1
CCCNC(=O)c1nnc2c(-c3c(Cl)cccc3OC)cccc2c1N [drawing 298] | 0.063 | 0.004 | 

Compound | Relative Potentiation for GABAA2 [1] | Relative Potentiation for GABAA1 [2] | Ki [3] [nM]
COc1ccncc1-c1cccc2c(N)c(C(=O)NC3CC3)nnc12 |  | 0.077 | 0.785
CCCNC(=O)c1nnc2c(-c3ccc(F)cc3OCC)c(F)ccc2c1N |  | 0.27 | 1.03
CCNC(=O)c1nnc2c(-c3c(F)cccc3OC)cccc2c1N |  |  | 0.301
CCCNC(=O)c1nnc2c(-c3c(OC)cccc3OC)cccc2c1N |  |  | 624
COc1ncccc1-c1cccc2c(N)c(C(=O)NC3CC3)nnc12 |  | −0.054 | 0.501
CCCNC(=O)c1nnc2c(-c3ccc(OC)cc3C(F)(F)F)c(F)ccc2c1N |  | 0.28 | 0.624
COc1ccc(-c2cccc3c(N)c(C(=O)NC4CC4)nnc23)c(OC)c1 |  |  | 2.07
COc1ccc(C)cc1-c1cccc2c(N)c(C(=O)NC3CC3)nnc12 |  |  | 15.2
Cc1ccc(-c2cccc3c(N)c(C(=O)NC4CC4)nnc23)cn1 | 0.074 |  | 4.02
CNC(=O)c1nnc2c(-c3cnc(OC)nc3OC)cccc2c1N |  |  | 514
CCNC(=O)c1nnc2c(-c3cnc(OC)c(F)c3)cccc2c1N |  | −0.010 | 9
CCCNC(=O)c1nnc2c(-c3ccc(OC)cc3OC)c(C#N)ccc2c1N |  |  | 2.69
CCNC(=O)c1nnc2c(-c3cc(C)ccc3OC)cccc2c1N |  | 0.23 | 10.5
CCCNC(=O)c1nnc2c(-c3ccc(OC)cc3OC)c(Cl)ccc2c1N |  | 0.87 | 5.71
CCNC(=O)c1nnc2c(-c3ccc(OC)cc3OC)cccc2c1N |  | −0.006 | 4.54
CCCNC(=O)c1nnc2c(-c3cc(OC)ccc3OC)c(Cl)ccc2c1N |  | 0.32 | 13.9
CCCNC(=O)c1nnc2c(-c3cc(Cl)ccc3Cl)c(F)ccc2c1N |  | 0.21 | 1.34
COc1ccc(F)cc1-c1cccc2c(N)c(C(=O)NC3CC3)nnc12 |  | −0.028 | 8.22
CCCNC(=O)c1nnc2c(-c3cc(Cl)ccc3OC)c(F)ccc2c1N |  | 0.25 | 0.327
